From paper PMC10154249, “Unique progerin C-terminal peptide ameliorates Hutchinson–Gilford progeria syndrome phenotype by rescuing BUBR1” (Nature Aging, 2023)

Key:
HGADFN003 cells = assay: Effect of UPCP on HGADFN003 senescence after BUBR1 depletion (shBUBR1#3): SA-β-gal, Ki67, aneuploid cells; assay type: cell-based, human; conditions: for Relative percentage of SA-β-gal positive cells: Fig. 5g; for Relative percentage of SA-β-gal positive cells / Relative percentage of Ki67 positive cells / Relative percentage of aneuploid cells: HGADFN003; for Relative percentage of Ki67 positive cells: Fig. 5i; for Relative percentage of aneuploid cells: Fig. 5j
Procedure: Immunofluorescence was performed as described previously. Cells were plated on cover slips in 12-well plates, left overnight before the treatment. Cells were fixed in 1% formaldehyde in culture medium for 10 min at 37 °C and permeabilized with 0.2% Triton X-100 in PBS for 10 min at room temperature. Cells were washed twice in PBS and blocked for 1 h with 5% BSA in PBS and then incubated with primary antibodies at 4 °C overnight, washed three times in PBS and incubated with secondary antibodies for 1 h at room temperature. Cell nuclei were counterstained with a 500 nM concentration of 4,6-diamidino-2-phenylindole (DAPI) (Sigma). Images were acquired by a fluorescence microscope (OLYMPUS FV-1000, Carl Zeiss LSM880 or Leica DMi8) and analyzed with software NIS-Elements AR v.5.0.1 (Nikon), FLUOVIEW v.4.2b (OLYMPUS), ZEN v.2.3 SP1 (Carl Zeiss) and Leica Application Suite X v.3.6.0.24 (Leica). Cells were quantified by investigators who were blinded to the identity of the analyzed cell.
SA-β-gal staining was performed as previously described. Cells were fixed in 0.5% glutaraldehyde for 15 min at room temperature, washed three times with PBS (pH 6.0) containing 1 mM MgCl2 and exposed overnight 37 °C to containing 1 mg ml^–1 5-bromo-4-chloro-3-indolyl-β-D-galactopyranoside (MCE, catalog no. HY-15934), 0.12 mM potassium ferrocyanide (Sigma, catalog no. P3289), 0.12 mM potassium ferricyanide (Sigma, catalog no. P8131) and 1 mM MgCl2 PBS buffer (pH 6.0). Cells were washed three times with H2O and observed under a microscope (OLYMPUS CKX53). SA-β-gal positive cells were quantified by investigators who were blinded to the identity of the analyzed cell.
For the metaphase chromosome spread assay, 1.5 × 10^6 cells were seeded in a 6 cm dish and incubated for 24 h with fresh medium. Then, colchicine was added to a final concentration of 0.2 μg ml^–1 and the cells were incubated at 37 °C for 2 h. After digestion, we collected and rinsed the cells with PBS. The cells were centrifuged at 160g for 10 min. Then, 1 M KCl was added to a final concentration of 0.075 mol l^–1 and the samples were incubated at 37 °C for 20 min. The cells were centrifuged, and the supernatant aspirated. The pellet was resuspended, and 1 ml methanol:glacial acetic acid (3:1) solution was added. The sample was rested at room temperature for 10 min. Then, the cells were centrifuged at 160g for 10 min. The supernatant was aspirated, and the pellet resuspended in 1 ml fixative for 30 min. The cells were centrifuged and the pellet was suspended in 1 ml fixative again for 30 min. The cells were centrifuged at 160g for 10 min and the supernatant aspirated. The pellet was then resuspended in a small volume of fixative (typically less than 500 μl) until the cell suspension appeared lightly milky. A small quantity of the cell suspension was held vertically in a pipette with the end about 10 cm above the slide. A single drop was released from this height onto the slide and allowed to air dry. The cells were then incubated with 500 nM of DAPI (Invitrogen) for 10 min. Slides were examined with an Olympus BX53 fluorescence microscope and the images were captured by using the Olympus IPP v.7.0 software. Aneuploid cells were quantified by investigators who were blinded to the identity of the analyzed cell.

[1] = tested on: lamin B1, p21 and IL-6 in skin of Lmna^G609G/G609G mice; assay: IHC of lamin B1, p21 and IL-6 in skin of Lmna^G609G/G609G mice; assay type: in vivo, mouse; conditions: for p21 positive cells / IL-6 positive cells / LaminB1 positive cells: LmnaG609G/G609G+UPCP; for p21 positive cells: P=0.0003 vs LmnaG609G/G609G-Mock; for IL-6 positive cells: P=0.0012 vs LmnaG609G/G609G-Mock; for LaminB1 positive cells: P=0.0142 vs LmnaG609G/G609G-Mock
Procedure: For UPCP injection, 14-day-old Lmna^G609G/G609G mice were injected intraperitoneally with either PBS or UPCP (20 mg kg^–1, every other day) and wild-type mice were injected with PBS. All phenotypic analyses were performed after 12 weeks of treatment with UPCP. Bodyweight and lifespan were monitored after UPCP treatment. The survival rate was analyzed by the Kaplan–Meier method. We only included mice that were of sufficient bodyweight at the start of the experiment, typically at least 80% of the average littermate weight of the same sex and genotype. All animals meeting criteria for inclusion were then divided randomly into three groups according to genotype (Lmna^+/+, Lmna^G609G/G609G-Mock and Lmna^G609G/G609G-UPCP).
For histological analyses, mice of the indicated genotypes were perfused with PBS, then with 4% paraformaldehyde (PFA). Whole organs were incubated in 4% PFA at 4 °C for 16 h. All samples were paraffin embedded and sectioning by Servicebio. Subsequently, the tissues were deparaffinized and rehydrated before hematoxylin-eosin (HE) or Masson staining or immunohistochemistry (IHC). HE staining was performed using an HE Kit (Absin, catalog no. abs9217), and Masson staining was performed using Masson’s Trichrome Stain Kit (Absin, catalog no. abs9347) according to the manufacturer’s instructions. The thickness of the layers or the areas of fibrosis in the tissues were calculated using ImageJ software by a blinded investigator. For IHC, the sections were completed by the Servicebio. The images were acquired by a microscope (Leica DMi8) and analyzed with Leica Application Suite X v.3.6.0.24 (Leica). For BubR1, cytoplasmic staining in cells was scored on the intensity of staining and the proportion of positive cells by a blinded investigator. The intensity of the staining was graded as 0 (negative, no color), 1 (low positive, light yellow), 2 (positive, brown yellow) or 3 (high positive, brown), and the number of positive cells was graded as 0 (<5%), 1 (5–25%), 2 (25–50%), 3 (51–75%) or 4 (>75%). The final score was defined as staining number score multiplied by staining color score. For lamin B1, p21 or IL-6, the proportion of positive cells was used to quantify the expression of protein in tissues by a blinded investigator.

[2] = skin, 20 mg kg^–1 i.p. every other day

## H-YGRKKRRQRRRYNLRSRTVLCGTCGQPADKASASGSGAQSPQNCSIM-OH (cysteines drawn unpaired) [UPCP, unique progerin C-terminal peptide]
HGADFN003 cells; UPCP+shBUBR1#3, P=0.0068 vs Mock, 0.0058 vs UPCP, replicate 1
  Relative percentage of SA-β-gal positive cells: 38%
HGADFN003 cells; UPCP+shBUBR1#3, P=0.0068 vs Mock, 0.0058 vs UPCP, replicate 2
  Relative percentage of SA-β-gal positive cells: 35%
HGADFN003 cells; UPCP+shBUBR1#3, P=0.0068 vs Mock, 0.0058 vs UPCP, replicate 3
  Relative percentage of SA-β-gal positive cells: 41%
HGADFN003 cells; UPCP, Mock 48, 52, 55, P=0.0005 vs Mock, replicate 1
  Relative percentage of SA-β-gal positive cells: 25%
HGADFN003 cells; UPCP, Mock 48, 52, 55, P=0.0005 vs Mock, replicate 2
  Relative percentage of SA-β-gal positive cells: 28%
HGADFN003 cells; UPCP, Mock 48, 52, 55, P=0.0005 vs Mock, replicate 3
  Relative percentage of SA-β-gal positive cells: 29%
HGADFN003 cells; UPCP+shBUBR1#3, P=0.0314 vs Mock, 0.0222 vs UPCP, replicate 1
  Relative percentage of Ki67 positive cells: 52%
HGADFN003 cells; UPCP+shBUBR1#3, P=0.0314 vs Mock, 0.0222 vs UPCP, replicate 2
  Relative percentage of Ki67 positive cells: 49%
HGADFN003 cells; UPCP+shBUBR1#3, P=0.0314 vs Mock, 0.0222 vs UPCP, replicate 3
  Relative percentage of Ki67 positive cells: 43%
HGADFN003 cells; UPCP, Mock 35, 41, 37, P=0.0029 vs Mock, replicate 1
  Relative percentage of Ki67 positive cells: 65%
HGADFN003 cells; UPCP, Mock 35, 41, 37, P=0.0029 vs Mock, replicate 2
  Relative percentage of Ki67 positive cells: 58%
HGADFN003 cells; UPCP, Mock 35, 41, 37, P=0.0029 vs Mock, replicate 3
  Relative percentage of Ki67 positive cells: 71%
HGADFN003 cells; UPCP+shBUBR1#3, P=0.0641 vs Mock, 0.0036 vs UPCP, replicate 1
  Relative percentage of aneuploid cells: 25%
HGADFN003 cells; UPCP+shBUBR1#3, P=0.0641 vs Mock, 0.0036 vs UPCP, replicate 2
  Relative percentage of aneuploid cells: 27%
HGADFN003 cells; UPCP+shBUBR1#3, P=0.0641 vs Mock, 0.0036 vs UPCP, replicate 3
  Relative percentage of aneuploid cells: 24%
HGADFN003 cells; UPCP, Mock 28, 36, 31, P=0.005 vs Mock, replicate 1
  Relative percentage of aneuploid cells: 19%
HGADFN003 cells; UPCP, Mock 28, 36, 31, P=0.005 vs Mock, replicate 2
  Relative percentage of aneuploid cells: 16%
HGADFN003 cells; UPCP, Mock 28, 36, 31, P=0.005 vs Mock, replicate 3
  Relative percentage of aneuploid cells: 18%
HGADFN003 cells; HGADFN003, BUBR1 shRNA (shBUBR1#3)
  senescence remission by UPCP after BUBR1 depletion: depletion of BUBR1 significantly antagonized the senescence remission mediated by UPCP
[1]; replicate 1
  p21 positive cells: 0.2237
  IL-6 positive cells: 0.4348
  LaminB1 positive cells: 0.5254
[1]; replicate 2
  p21 positive cells: 0.3636
  IL-6 positive cells: 0.5192
  LaminB1 positive cells: 0.7647
[1]; replicate 3
  p21 positive cells: 0.2043
  IL-6 positive cells: 0.5517
  LaminB1 positive cells: 0.3729
[1]; replicate 4
  p21 positive cells: 0.2308
  IL-6 positive cells: 0.5702
  LaminB1 positive cells: 0.6429
[1]; replicate 5
  p21 positive cells: 0.3175
  IL-6 positive cells: 0.5897
  LaminB1 positive cells: 0.6739
[1]; replicate 6
  p21 positive cells: 0.1875
  IL-6 positive cells: 0.375
  LaminB1 positive cells: 0.598
[1]; [2]
  number of lamin B1 positive cells: increase the number of lamin B1 positive cells
  p21 and IL-6 expression: reduce p21 and IL-6 expression in the skin
